Measured values as given in US20030027243A1, “Antifungal compounds and methods of use” (Anadys Pharmaceuticals, Inc., priority 2000, published 2003).

Legend:
Test in all cases: Broth microdilution antifungal susceptibility test (NCCLS M27A based), MIC
Format in all cases: cell-based
Conditions in all cases: quality control range for control compounds, 35° C., 48 hours
[1] = system: Aspergillus nidulans, e.g., NRRL 194 (ATCC 38163)
From the text: (§1) Non-limiting examples of such procedures test the candidate inhibitor compounds for antifungal activity against a panel of three strains: C. albicans, S. cerevisiae , and A. nidulans. One such procedure is based on the NCCLS M27A method (The National Committee for Clinical Laboratory Standards, Reference Method for Broth Microdilution Antifungal Susceptibility Testing of Yeasts; approved standard, 1997) to measure minimum inhibitory concentrations (MICs) and minimum fungicidal concentrations (MFCs). An overview of this of this protocol follows.
3. RPMI-1640: 10.4 g powdered media (Sigma R-6504, w/ glutamine & w/o bicarbonate); 2.0 g NaHCO3 (Sigma S-6297); 34.53 g MOPS buffer (Sigma M-6270). Dissolve powdered media and NaHCO3 in 900 ml distilled water. Add MOPS and stir until dissolved. Adjust pH to 7.0 using 1N NaOH. […]
2. […] The turbidity of the solution is determined by measuring the absorbance in a spectrophotometer (Shimadzu UV-1201S UV-VIS Spectrophotometer) set at 600 nm. An absorbance value between 0.1 and 0.4 is required for an accurate reading. […]
(§2) Stock solutions of control compounds (1.6 mg/ml, Amphotericin B or Itraconazole) are initially diluted in medium to a concentration of 32 ug/ml while stock solutions of test compounds (typically 12.8 mg/ml) are diluted to 256 ug/ml. […] If a stock solution of a test compound is not at 12.8 mg/ml, the appropriate dilution must be calculated. […]

[2] = system: Candida albicans, e.g., ATCC 10231
From the text: as §1
(§3) 3. RPMI-1640: 10.4 g powdered media (Sigma R-6504, w/ glutamine & w/o bicarbonate); 2.0 g NaHCO3 (Sigma S-6297); 34.53 g MOPS buffer (Sigma M-6270). Dissolve powdered media and NaHCO3 in 900 ml distilled water. Add MOPS and stir until dissolved. Adjust pH to 7.0 using 1N NaOH. Bring final volume to 1 liter, filter sterilize, and store at 4° C.
(§4) 1. Yeasts: Yeasts (Saccharonyces cerevisiae and Candida albicans) are cultured on Sabouraud dextrose agar (SDA) plates in a 35° C. incubator. Strains on SDA plates are stored at 4° C. and used as working stock cultures. Working stock plates are prepared once a month from frozen stocks of cells. Inoculum for susceptibility testing is prepared from fresh 24 hour cultures. 5-10 colonies are scraped from the plate and suspended in three milliliters of sterile 0.85% saline (8.5 g/liter NaCl). The cell density of the solution is determined by measuring the absorbance in a spectrophotometer (Shimadzu UV-1201S UV-VIS Spectrophotometer) set at 600 nm. An absorbance value between 0.1 and 0.4 is required for an accurate reading. […]
as §2

[3] = system: Saccharomyces cerevisiae, e.g., CTY552
From the text: as §1, §3, §4, §2

SMILES	Acceptable MIC range values [1] [µg/mL]	Acceptable MIC range values [2] [µg/mL]	Acceptable MIC range values [3] [µg/mL]
C[C@@H]1[C@H](O)[C@@H](C)/C=C/C=C/C=C/C=C/C=C/C=C/C=C/[C@H](O[C@@H]2O[C@H](C)[C@@H](O)[C@H](N)[C@@H]2O)C[C@@H]2O[C@](O)(C[C@@H](O)C[C@@H](O)[C@H](O)CC[C@@H](O)C[C@@H](O)CC(=O)O[C@H]1C)C[C@H](O)[C@H]2C(=O)O [Am B, Amphotericin B]	0.5 to 2.0	0.25 to 1.0	0.25 to 1.0
CCC(C)n1ncn(-c2ccc(N3CCN(c4ccc(OCC5COC(Cn6cncn6)(c6ccc(Cl)cc6Cl)O5)cc4)CC3)cc2)c1=O (centres unmarked) [Itraconazole]	0.25 to 1.0	0.25 to 1.0	
